Experimental data reported in BindingDB's records for doi:10.1016/s0960-894x(00)00161-x (University of Tokyo, 2000).

Assay: Inhibition of Beta-glucosidase activity.

IC50, > 500 µM:
O=C1c2ccc(O)cc2C(=O)N1c1ccccc1 [5-hydroxy-2-phenylisoindoline-1,3-dione]
O=C1c2c(Cl)c(Cl)c(Cl)c(Cl)c2C(=O)N1CCCCc1ccccc1 [4,5,6,7-tetrachloro-2-(4-phenylbutyl)isoindoline-1,3-dione]
O=C1c2ccccc2C(=O)N1CCc1ccccc1 [2-Phenethyl-isoindole-1,3-dione]
O=C1c2cccc([N+](=O)[O-])c2C(=O)N1c1ccccc1
O=C1c2ccc([N+](=O)[O-])cc2C(=O)N1c1ccccc1 [5-Nitro-2-phenyl-isoindole-1,3-dione]
O=C1c2c(Cl)c(Cl)c(Cl)c(Cl)c2C(=O)N1CCc1ccccc1 [4,5,6,7-Tetrachloro-2-phenethyl-isoindole-1,3-dione]
O=C1c2c(Cl)c(Cl)c(Cl)c(Cl)c2C(=O)N1Cc1ccccc1 [2-Benzyl-4,5,6,7-tetrachloro-isoindole-1,3-dione]
O=C1c2cccc(O)c2C(=O)N1c1ccccc1 [4-Hydroxy-2-phenyl-isoindole-1,3-dione]
O=C1c2c(Cl)c(Cl)c(Cl)c(Cl)c2C(=O)N1CCCc1ccccc1 [4,5,6,7-Tetrachloro-2-(3-phenyl-propyl)-isoindole-1,3-dione]
O=C1c2c(Cl)c(Cl)c(Cl)c(Cl)c2C(=O)N1CCCCCc1ccccc1 [4,5,6,7-Tetrachloro-2-(5-phenyl-pentyl)-isoindole-1,3-dione]
Nc1ccc2c(c1)C(=O)N(c1ccccc1)C2=O [5-Amino-2-phenyl-isoindole-1,3-dione]
O=C1c2ccccc2C(=O)N1CCCc1ccccc1 [2-(3-Phenyl-propyl)-isoindole-1,3-dione]
O=C1c2c(Cl)c(Cl)c(Cl)c(Cl)c2C(=O)N1CCCCCCc1ccccc1 [4,5,6,7-Tetrachloro-2-(6-phenyl-hexyl)-isoindole-1,3-dione]
O=C1c2ccccc2C(=O)N1c1ccccc1 [2-Phenyl-isoindole-1,3-dione]
